According to publication PMC4619319, “A potent anti-inflammatory peptide from the salivary glands of horsefly” (Parasites & Vectors, 2015):

Legend:
P-p65 = test: Western blot, LPS-induced P-p65 in peritoneal macrophages; type: cell-based, mouse; details: 20 μg/mL peptide, 100 ng/mL LPS, 30 min, band density ratio to β-actin
Protocol: (§1) Cells were treated with different concentrations of cecropin-TY1 (0, 5, 10, and 20 μg/mL) in the presence or absence of 100 ng/mL LPS (from E. coli 0111:B4, Sigma-Aldrich, USA). After 30-min incubation, cells were washed twice with ice-cold PBS and lysed with RIPA lysis buffer (Beyotime, China) on ice for 30 min according to our previous method. Protein concentration was quantified by BCA Protein Assay Kit (Thermo, Germany). About 40 μg protein was separated on a 10 % SDS-PAGE gel and transferred to a polyvinylidene difluoride membrane. The membrane was blocked by incubating with 5 % BSA (BD, USA) dissolved in Tris-buffered solution Tween-20 (TBST, 2.42 g/L Trisbase, 8 g/L NaCl, 0.1 % Tween 20, pH 7.6) for 2 h at room temperature. The membrane was then incubated with primary antibodies against ERK, phospho-ERK, p38, phospho-p38, JNK, phospho-JNK, phospho-IκBα, NF-κB p65 and phospho-NF-κB p65 (1:2000, Cell Signaling Technology, USA) and GAPDH/β-actin (1:5000, Santa Cruz Biotechnology, USA) overnight at 4 °C, respectively. After incubation, the immunoblot was washed three times with TBST for 5 min each time, and incubated with secondary antibody (1:5000, Cell Signaling Technology, USA) at room temperature for 1 h. Signals were measured by enhanced chemiluminescence kit in a dark room after washing three times with TBST for 10 min each time (TIANGEN, China).

nitrite production = test: LPS-stimulated nitrite (NO) production in peritoneal macrophages; type: cell-based, mouse; details: 100 ng/mL LPS, 24 h
Protocol: Cells were incubated with peptides (0, 5, 10, and 20 μg/mL) in the presence or absence of LPS (100 ng/mL, from Escherichia coli 0111:B4, Sigma-Aldrich, USA). After 6-h incubation, cells in one plate were washed twice with ice-cold PBS and lysed by Trizol reagent (Life Tech, USA) for total RNA extraction. PrimeScript® Reverse Transcriptase Kit (Takara, Japan) was used to synthesize cDNA for qPCR to examine the transcription levels of inducible nitric oxide synthase (iNOS), which is necessary for NO production. After 24-h incubation, culture medium of each wells of another plate was harvested for nitrite detection, which indirectly reflected the NO production. Nitrite accumulation levels were determined by NO detection kit (Beyotime, China) following the kit instruction.

P-ERK1 = test: Western blot, LPS-induced P-ERK1 in peritoneal macrophages; type: cell-based, mouse; details: 20 μg/mL peptide, 100 ng/mL LPS, 30 min, band density ratio to β-actin
Protocol: as §1

[1] = cited from earlier work
Excerpt: Supplement 13071_2015_1149_MOESM1_ESM.docx, table 2: Table S2. Primary structural and biochemical characteristics of cecropin-TY1. | column: […]-NH2 39 +5 3970.22 Da 3970.66 Da 11.17

RAW264.7 cells = details: CCK-8, 24 h, concentration as high as 200 μg/mL
Protocol: (§2) Mouse peritoneal macrophages were prepared according to previous method. Brewer thioglycollate medium (3 %, w/v, Sigma-Aldrich, USA) was intraperitoneally injected to C57BL/6 mouse. After 3 days, the mouse was euthanized and intraperitoneally injected with 20 mL RPMI-1640 medium to collect peritoneal macrophages. RAW264.7 cells were cultured in RPMI 1640 medium (10 % FBS, 100 U/mL penicillin and 100 μg/mL streptomycin, Gibco, USA) at 37 °C humidified with 5 % CO2. Mouse macrophages, peritoneal macrophages and RAW264.7 cells, were seeded in a 96-well (2 × 10^4 cells/well) plate, and cultured in RPMI 1640 medium (100 μL) supplemented with 2 % FBS, 100 U/mL penicillin and 100 μg/mL streptomycin (Gibco, USA) at 37 °C in a humidified 5 % CO2 incubator. The cytotoxicity of cecropin-TY1 against mouse macrophages was determined by Cell Counting Kit-8 assay (CCK-8) following the kit instruction. In brief, serial 2-fold peptide dilutions were added to each well, and control wells received the same volume of phosphate-buffered solution (PBS, 8 g/L NaCl, 0.2 g/L KCl, 0.2 g/L KH2PO4, 2.89 g/L Na2HPO4 · 12H2O, pH 7.4). After 24-h incubation, CCK-8 solution (10 μL/well) was added and incubated for an additional 4 h. The absorbance at 450 nm was monitored on a microplate reader (Epoch Etock, BioTek, USA).

[2] = test system: mouse peritoneal macrophages; details: CCK-8, 24 h, concentration as high as 200 μg/mL
Protocol: as §2

IL-6 production = test: LPS-stimulated IL-6 production in peritoneal macrophages (ELISA); type: cell-based, mouse; details: 20 μg/mL peptide, 100 ng/mL LPS, 6 h
Protocol: Cells were incubated with peptides (0, 5, 10, and 20 μg/mL) with or without 100 ng/mL LPS (from E. coli 0111:B4, Sigma-Aldrich, USA) for 6 h. After treatment, culture medium was collected for TNF-α, IL-1β and IL-6 quantification using enzyme-linked immunosorbent assay (ELISA) kits (Dakewei, China). Cells were washed with ice-cold PBS and lysed by Trizol reagent (Life Tech, USA). Total RNA was extracted for cDNA synthesis to quantify TNF-α, IL-1β and IL-6 transcription levels by qPCR as described in qPCR section.

[3] = LPS neutralization, chromogenic end-point TAL assay; type: biochemical; details: LPS 1 μg/mL, 37 °C, 30 min
Protocol: Fluorescein isothiocyanate (FITC)-conjugated LPS (1 μg/mL, Sigma-Aldrich, USA) was excited at 480 nm and monitored the changes in the emission of FITC-LPS at 515 nm in the incubation of different concentrations of peptides (0, 12.5, 25, 50, 100 μg/mL). Peptides were dissolved in 10 mM phosphate buffer at pH 6.0. The interactions between peptides and LPS were further assessed by a quantitative Chromogenic End-point Tachypleus amebocyte lysate (TAL) assay kit (Xiamen Houshiji, China) following the kit instruction. Briefly, different concentrations of peptides (0, 12.5, 25, 50, 100 μg/mL) were incubated with LPS (1 μg/mL, Sigma-Aldrich, USA) at 37 °C for 30 min. After incubation, 100 μL TAL solution was added to 100 μL LPS-peptide mixtures in a pyrogen-free tube and incubated at 37 °C for 10 min. Then, LPS-peptide mixtures were added with pre-warmed substrate solution for additional 6-min incubation at 37 °C. Lastly, the absorbance at 545 nm was measured on a microplate reader (Epoch Etock, BioTek, USA). The percentages of LPS-neutralizing activity were calculated.

Q: For “GWLKKIGKKIERVGQNVRNAAISTLPIAQGAAGVAGALN-NH2 [cecropin-TY1, cecropin antimicrobial peptide from salivary glands of horsefly Tabanus yao, 39 residues, C-terminally amidated, synthesized]”, which “inhibition of LPS-induced P-p65 expression” value (P-p65) is on record?
A: 55.9%

Q: What about the “attenuation of LPS-induced nitrite production” value (“attenuation” below) (nitrite production; 5 μg/mL peptide) of the same substance?
A: about 40.0%

Q: And the “attenuation” value (nitrite production; 10 μg/mL peptide)?
A: ~63.7%

Q: What about the “attenuation” value (nitrite production; 20 μg/mL peptide) of the same substance?
A: ~75.0%

Q: What about the “inhibition of LPS-induced P-ERK1 expression” value (P-ERK1) of the same substance?
A: 75.5%

Q: What about the Net charges [1] of the same substance?
A: 5

Q: And the “Theoretical pI” value ([1]; theoretical)?
A: 11.17

Q: What about the “cytotoxicity (cell viability)” value (RAW264.7 cells) of the same substance?
A: didn’t show any cytotoxicity

Q: And the “cytotoxicity (cell viability)” value [2]?
A: didn’t show any cytotoxicity

Q: What about the “reduction of LPS-induced IL-6 production” value (IL-6 production) of the same substance?
A: 76.2%

Q: And the LPS neutralized ([3]; 12.5 μg/mL peptide)?
A: 28.8%

Q: What about the LPS neutralized ([3]; 25 μg/mL peptide) of the same substance?
A: 41.3%

Q: What about the LPS neutralized ([3]; 50 μg/mL peptide) of the same substance?
A: 47.9%

Q: What about the LPS neutralized ([3]; 100 μg/mL peptide) of the same substance?
A: 65.1%
